The values below are quoted from earlier work in patent US20060159628A1, “Nanoparticulate benzothiophene formulations” (Elan Pharma International Limited, priority 2004, published 2006).

One data set has as its system MCF-7 cells. Particulars: cell culture.
In another data set the test system is uterine tissue. Particulars: ovariectomized (OVX) rats.

Regarding `Cl.O=C(c1ccc(OCCN2CCCCC2)cc1)c1c(-c2ccc(O)cc2)sc2cc(O)ccc12` [Raloxifene hydrochloride, methanone, [6-hydroxy-2-(4-hydroxyphenyl)benzo[b]thien-3-yl]-[4-[2-(1-piperidinyl)ethoxy]phenyl]-, hydrochloride], the solubility in water result is given as “very slightly soluble”. In addition, the “estrogen-dependent proliferation in MCF-7 cells” value in the data set with MCF-7 cells is “inhibits estrogen-dependent proliferation”. In addition, the uterotrophic response entry in the data set on uterine tissue is “only minimal uterotrophic response”.
